This passage reports IC50 results from patent EP4653437A2 (Innovo Therapeutics Inc., priority 2023, dated 2024).

Where only a bound is given, the exact number is not on record here.

This test addresses T1, human 15-PGDH (Homo sapiens, UniProt P15428).
T1 construct: purchased R&D System 5660-DH
T1 sequence (P15428 1-266): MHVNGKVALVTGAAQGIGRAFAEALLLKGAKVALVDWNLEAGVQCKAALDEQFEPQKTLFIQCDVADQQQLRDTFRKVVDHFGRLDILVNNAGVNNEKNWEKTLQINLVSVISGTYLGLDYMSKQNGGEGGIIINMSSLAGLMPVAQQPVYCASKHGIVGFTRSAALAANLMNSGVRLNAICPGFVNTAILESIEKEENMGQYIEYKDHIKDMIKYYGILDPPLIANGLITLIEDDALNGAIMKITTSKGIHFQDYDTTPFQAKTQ
The test is described as follows: Evaluation of 15-PGDH inhibitory activity (fluorescence enzyme assay, NAD+/PGE2). Format: biochemical. The conditions noted are these: human 15-PGDH enzyme, fluorescence Vmax. The protocol:
15-PGDH inhibition activity of Example compounds was measured as follows. 6.7 ng of human 15-PGDH (R&D System# 5660-DH) enzyme (10 µL) was added to a black 96 well plate, 60 µL of buffer (50 mM Tris-HCl, pH 7.5, 0.01% Tween 20) was added, and 10 µL of 200 µM β-Nicotinamide adenine dinucleotide sodium salt (Sigma, Cat# N0632-5G) was added. 10 µL of (10x) compound solution in DMSO was added and reacted for 10 minutes at room temperature.
In the case of `COc1ccc(-c2cccc3c(C(=O)N4CCCCC4)cnn23)cc1OC` [Example 24, (7-(3,4-dimethoxyphenyl)pyrazolo[1,5-a]pyridin-3-yl)(piperidin-1-yl)methanone], the IC50 (commonly the concentration that gives 50% inhibition) is no more than 100 nM.
On to `O=C(c1cc2c(-c3ccc4c(c3)OCO4)cncc2[nH]1)N1CCCCC1` [Example 175, (4-(benzo[d][1,3]dioxol-5-yl)-1H-pyrrolo[2,3-c]pyridin-2-yl)(piperidin-1-yl)methanone], for which the IC50 is greater than 1000 nM.
For `COC(=O)c1ccc(-c2cccc3c(C(=O)N4CCCCC4)cnn23)cc1` [Example 11, methyl 4-(3-(piperidine-1-carbonyl)pyrazolo[1,5-a]pyridin-7-yl)benzoate] the value was no more than 100 nM; for `COc1ccc(-c2ccc3c(C(=O)N4CCCCC4)cnn3c2)cc1` [Example 171, (6-(4-methoxyphenyl)pyrazolo[1,5-a]pyridin-3-yl)(piperidin-1-yl)methanone], no more than 100 nM; for `O=C(c1cc2nc(-c3ccncc3)ccc2[nH]1)N1CCCCC1` [Example 184, piperidin-1-yl(5-(pyridin-4-yl)-1H-pyrrolo[3,2-b]pyridin-2-yl)methanone], 100 to 1000 nM.
For `O=C(c1cnn2cc(-c3cccc(Cl)c3)ccc12)N1CCCCC1` [Example 170, (6-(3-chlorophenyl)pyrazolo[1,5-a]pyridin-3-yl)(piperidin-1-yl)methanone] the value was no more than 100 nM; for `O=C(Cc1cccnc1)Nc1ccc(-c2cccc3c(C(=O)N4CCCCC4)cnn23)cn1` [Example 106, N-(5-(3-(piperidine-1-carbonyl)pyrazolo[1,5-a]pyridin-7-yl)pyridin-2-yl)-2-(pyridin-3-yl)acetamide], no more than 100 nM; for `O=C(c1cc2ncc(-c3ccc4c(c3)OCO4)cc2[nH]1)N1CCCCC1` [Example 172, (6-(benzo[d][1,3]dioxol-5-yl)-1Hpyrrolo[3,2-b]pyridin-2-yl)(piperidin-1-yl)methanone], greater than 1000 nM.
For `Nc1ccc(-c2cccn3c(C(=O)N4CCCCC4)cnc23)cc1` [Example 164, (8-(4-aminophenyl)imidazo[1,2-a]pyridin-3-yl)(piperidin-1-yl)methanone] the value was greater than 1000 nM; for `CC(=O)Nc1ccc(-c2cccc3c(C(=O)N4CCCCC4)cnn23)cc1` [Example 97, N-(4-(3-(piperidine-1-carbonyl)pyrazolo[1,5-a]pyridin-7-yl)phenyl)acetamide], no more than 100 nM; for `O=C(c1cnn2c(-c3cc4ccccc4o3)cccc12)N1CCCCC1` [Example 123, (7-(benzofuran-2-yl)pyrazolo[1,5-a]pyridin-3-yl)(piperidin-1-yl)methanone], no more than 100 nM.
`O=C(c1cc2nc(-c3ccc4c(c3)OCO4)ncc2[nH]1)N1CCCCC1` [Example 187, (2-(benzo[d][1,3]dioxol-5-yl)-5H-pyrrolo[3,2-d]pyrimidin-6-yl)(piperidin-1-yl)methanone]: the IC50 fell in the range of 100 to 1000 nM.
For `O=C(c1cc2nc(-c3cccc(Cl)c3)ccc2[nH]1)N1CCCCC1` [Example 185, (5-(3-chlorophenyl)-1H-pyrrolo[3,2-b]pyridin-2-yl)(piperidin-1-yl)methanone] the value was 100 to 1000 nM; for `Nc1ccc(-c2cccc3c(C(=O)N4CCCCC4)cnn23)cc1` [Example 14, (7-(4-aminophenyl)pyrazolo[1,5-a]pyridin-3-yl)(piperidin-1-yl)methanone], no more than 100 nM; for `CN1CCc2cc(-c3cccc4c(C(=O)N5CCCCC5)cnn34)ccc2C1=O` [Example 137, 2-methyl-6-(3-(piperidine-1-carbonyl)pyrazolo[1,5-a]pyridin-7-yl)-3,4-dihydroisoquinolin-1(2H)-one], no more than 100 nM.
For `O=C(c1cncc(-c2cccc3c(C(=O)N4CCCCC4)cnn23)c1)N1CC2(CCC2)C1` [Example 43, (7-(5-(2-azaspiro[3.3]heptane-2-carbonyl)pyridin-3-yl)pyrazolo[1,5-a]pyridin-3-yl)(piperidin-1-yl)methanone] the value was no more than 100 nM.
